In ChEMBL document CHEMBL5724806, “Unraveling interindividual differences and functional consequences of gut microbial metabolism of immunosuppressants” (2024):

Tests used:
Format in all cases: ADME
[1] = (§1) The drug is tested on the gut metagenome community of A-09 with ENA study accession number: PRJEB31790 for biotransformation under anaerobic condition. The drug concentrations were measured over 7 timepoints collected between 0 and 12 hours of incubation by liquid-chromatography-coupled mass spectrometry (LC–MS); parameters: dose 5 uM, timepoint 0, 0.75, 1.5, 3, 6, 9, 12 hours; details: 5 µM
[2] = as §1, with “P-04” for “A-09”; parameters: dose 5 uM, timepoint 0, 0.75, 1.5, 3, 6, 9, 12 hours; details: 5 µM
[3] = The drug is tested on Parabacteroides distasonis strain: DSM20701 for biotransformation under anaerobic condition. The drug concentrations were measured over 6 timepoints collected between 0 and 12 hours of incubation by liquid-chromatography-coupled mass spectrometry (LC–MS); parameters: dose 5 uM, timepoint 0, 1.5, 3, 6, 9, 12 hours; details: 5 µM
[4] = as §1, with “A-08” for “A-09”, “microaerobic” for “anaerobic”; parameters: dose 5 uM, timepoint 0, 0.75, 1.5, 3, 6, 9, 12 hours; details: 5 µM
[5] = The drug is tested on Roseburia intestinalis strain: DSM14610 for biotransformation under anaerobic condition. The drug concentrations were measured over 6 timepoints collected between 0 and 12 hours of incubation by liquid-chromatography-coupled mass spectrometry (LC–MS); parameters: dose 5 uM, timepoint 0, 1.5, 3, 6, 9, 12 hours; details: 5 µM
[6] = The drug is tested on Enterococcus faecalis strain: ATCC29212 for biotransformation under microaerobic condition. The drug concentrations were measured over 6 timepoints collected between 0 and 12 hours of incubation by liquid-chromatography-coupled mass spectrometry (LC–MS); parameters: dose 5 uM, timepoint 0, 1.5, 3, 6, 9, 12 hours; details: 5 µM
[7] = as §1, with “A-05” for “A-09”; parameters: dose 5 uM, timepoint 0, 0.75, 1.5, 3, 6, 9, 12 hours; details: 5 µM
[8] = as §1, with “A-03” for “A-09”; parameters: dose 5 uM, timepoint 0, 0.75, 1.5, 3, 6, 9, 12 hours; details: 5 µM
[9] = as §1, with “T-02” for “A-09”, “microaerobic” for “anaerobic”; parameters: dose 5 uM, timepoint 0, 0.75, 1.5, 3, 6, 9, 12 hours; details: 5 µM
[10] = The drug is tested on Bifidobacterium adolescentis strain: DSM20083 for biotransformation under anaerobic condition. The drug concentrations were measured over 6 timepoints collected between 0 and 12 hours of incubation by liquid-chromatography-coupled mass spectrometry (LC–MS); parameters: dose 5 uM, timepoint 0, 1.5, 3, 6, 9, 12 hours; details: 5 µM
[11] = The drug is tested on Capnocytophaga ochracea strain: DSM7271 for biotransformation under microaerobic condition. The drug concentrations were measured over 6 timepoints collected between 0 and 12 hours of incubation by liquid-chromatography-coupled mass spectrometry (LC–MS); parameters: dose 5 uM, timepoint 0, 1.5, 3, 6, 9, 12 hours; details: 5 µM
[12] = The drug is tested on Streptococcus sanguinis strain: DSM20567 for biotransformation under microaerobic condition. The drug concentrations were measured over 6 timepoints collected between 0 and 12 hours of incubation by liquid-chromatography-coupled mass spectrometry (LC–MS); parameters: dose 5 uM, timepoint 0, 1.5, 3, 6, 9, 12 hours; details: 5 µM
[13] = as §1, with “A-04” for “A-09”, “microaerobic” for “anaerobic”; parameters: dose 5 uM, timepoint 0, 0.75, 1.5, 3, 6, 9, 12 hours; details: 5 µM
[14] = The drug is tested on Enterococcus faecalis strain: ATCC29212 for biotransformation under anaerobic condition. The drug concentrations were measured over 6 timepoints collected between 0 and 12 hours of incubation by liquid-chromatography-coupled mass spectrometry (LC–MS); parameters: dose 5 uM, timepoint 0, 1.5, 3, 6, 9, 12 hours; details: 5 µM
[15] = The drug is tested on Lactobacillus gasseri strain: DSM20243 for biotransformation under microaerobic condition. The drug concentrations were measured over 6 timepoints collected between 0 and 12 hours of incubation by liquid-chromatography-coupled mass spectrometry (LC–MS); parameters: dose 5 uM, timepoint 0, 1.5, 3, 6, 9, 12 hours; details: 5 µM
[16] = The drug is tested on Faecalibacterium prausnitzii strain: DSM17677 for biotransformation under anaerobic condition. The drug concentrations were measured over 6 timepoints collected between 0 and 12 hours of incubation by liquid-chromatography-coupled mass spectrometry (LC–MS); parameters: dose 5 uM, timepoint 0, 1.5, 3, 6, 9, 12 hours; details: faecalibacterium duncaniae, 5 µM
[17] = The drug is tested on Prevotella copri strain: DSM18205 for biotransformation under anaerobic condition. The drug concentrations were measured over 6 timepoints collected between 0 and 12 hours of incubation by liquid-chromatography-coupled mass spectrometry (LC–MS); parameters: dose 5 uM, timepoint 0, 1.5, 3, 6, 9, 12 hours; details: segatella copri, 5 µM
[18] = as §1, with “A-10” for “A-09”, “microaerobic” for “anaerobic”; parameters: dose 5 uM, timepoint 0, 0.75, 1.5, 3, 6, 9, 12 hours; details: 5 µM
[19] = The drug is tested on Actinomyces naeslundi strain: DSM43013 for biotransformation under microaerobic condition. The drug concentrations were measured over 6 timepoints collected between 0 and 12 hours of incubation by liquid-chromatography-coupled mass spectrometry (LC–MS); parameters: dose 5 uM, timepoint 0, 1.5, 3, 6, 9, 12 hours; details: actinomyces naeslundii, 5 µM
[20] = The drug is tested on Lactobacillus ruminis strain: ATCC25644 for biotransformation under anaerobic condition. The drug concentrations were measured over 6 timepoints collected between 0 and 12 hours of incubation by liquid-chromatography-coupled mass spectrometry (LC–MS); parameters: dose 5 uM, timepoint 0, 1.5, 3, 6, 9, 12 hours; details: ligilactobacillus ruminis, 5 µM
[21] = as §1, with “T-03” for “A-09”, “microaerobic” for “anaerobic”; parameters: dose 5 uM, timepoint 0, 0.75, 1.5, 3, 6, 9, 12 hours; details: 5 µM
[22] = The drug is tested on Bacteroides thetaiotaomicron strain: DSM2079 for biotransformation under anaerobic condition. The drug concentrations were measured over 6 timepoints collected between 0 and 12 hours of incubation by liquid-chromatography-coupled mass spectrometry (LC–MS); parameters: dose 5 uM, timepoint 0, 1.5, 3, 6, 9, 12 hours; details: 5 µM
[23] = as §1, with “A-10” for “A-09”; parameters: dose 5 uM, timepoint 0, 0.75, 1.5, 3, 6, 9, 12 hours; details: 5 µM
[24] = as §1, with “P-01” for “A-09”; parameters: dose 5 uM, timepoint 0, 0.75, 1.5, 3, 6, 9, 12 hours; details: 5 µM
[25] = The drug is tested on Bacteroides stercoris strain: HM 1036 for biotransformation under anaerobic condition. The drug concentrations were measured over 6 timepoints collected between 0 and 12 hours of incubation by liquid-chromatography-coupled mass spectrometry (LC–MS); parameters: dose 5 uM, timepoint 0, 1.5, 3, 6, 9, 12 hours; details: 5 µM
[26] = The drug is tested on Capnocytophaga ochracea strain: DSM7271 for biotransformation under anaerobic condition. The drug concentrations were measured over 6 timepoints collected between 0 and 12 hours of incubation by liquid-chromatography-coupled mass spectrometry (LC–MS); parameters: dose 5 uM, timepoint 0, 1.5, 3, 6, 9, 12 hours; details: 5 µM
[27] = The drug is tested on Parabacteroides merdae strain: DSM19495 for biotransformation under anaerobic condition. The drug concentrations were measured over 6 timepoints collected between 0 and 12 hours of incubation by liquid-chromatography-coupled mass spectrometry (LC–MS); parameters: dose 5 uM, timepoint 0, 1.5, 3, 6, 9, 12 hours; details: 5 µM
[28] = The drug is tested on Bifidobacterium longum strain: DSM20088 for biotransformation under microaerobic condition. The drug concentrations were measured over 6 timepoints collected between 0 and 12 hours of incubation by liquid-chromatography-coupled mass spectrometry (LC–MS); parameters: dose 5 uM, timepoint 0, 1.5, 3, 6, 9, 12 hours; details: 5 µM
[29] = The drug is tested on Streptococcus anginosus strain: DSM20563 for biotransformation under anaerobic condition. The drug concentrations were measured over 6 timepoints collected between 0 and 12 hours of incubation by liquid-chromatography-coupled mass spectrometry (LC–MS); parameters: dose 5 uM, timepoint 0, 1.5, 3, 6, 9, 12 hours; details: 5 µM
[30] = The drug is tested on Gemella morbillorum strain: DSM20572 for biotransformation under microaerobic condition. The drug concentrations were measured over 6 timepoints collected between 0 and 12 hours of incubation by liquid-chromatography-coupled mass spectrometry (LC–MS); parameters: dose 5 uM, timepoint 0, 1.5, 3, 6, 9, 12 hours; details: 5 µM

Bacterial Biotransformation [1] | Bacterial Biotransformation [2] | Bacterial Biotransformation [3] | Bacterial Biotransformation [4] | Bacterial Biotransformation [5] | Bacterial Biotransformation [6] | Bacterial Biotransformation [7] | Bacterial Biotransformation [8] | Bacterial Biotransformation [9] | Bacterial Biotransformation [10] | Bacterial Biotransformation [11] | Bacterial Biotransformation [12] | Bacterial Biotransformation [13] | Bacterial Biotransformation [14] | Bacterial Biotransformation [15] | Bacterial Biotransformation [16] | Bacterial Biotransformation [17] | Bacterial Biotransformation [18] | Bacterial Biotransformation [19] | Bacterial Biotransformation [20] | SMILES | also measured
Compound metabolized | Compound metabolized | Compound NOT metabolized | Compound metabolized | Compound NOT metabolized | Compound NOT metabolized | Compound metabolized | Compound metabolized | Compound metabolized | Compound NOT metabolized | Compound NOT metabolized | Compound NOT metabolized | Compound metabolized | Compound NOT metabolized | Compound NOT metabolized | Compound NOT metabolized | Compound NOT metabolized | Compound metabolized | Compound NOT metabolized | Compound NOT metabolized | C[C@]12CCC(=O)C=C1CC[C@@H]1[C@@H]2[C@@H](O)C[C@@]2(C)[C@H]1CC[C@]2(O)C(=O)CO [HYDROCORTISONE] | Bacterial Biotransformation [21]: Compound NOT metabolized; Bacterial Biotransformation [22]: Compound NOT metabolized; Bacterial Biotransformation [23]: Compound metabolized; Bacterial Biotransformation [24]: Compound metabolized; Bacterial Biotransformation [25]: Compound NOT metabolized; Bacterial Biotransformation [26]: Compound NOT metabolized; Bacterial Biotransformation [27]: Compound NOT metabolized; Bacterial Biotransformation [28]: Compound NOT metabolized; Bacterial Biotransformation [29]: Compound NOT metabolized; Bacterial Biotransformation [30]: Compound NOT metabolized
Compound metabolized | Compound NOT metabolized | Compound NOT metabolized | Compound metabolized | Compound NOT metabolized | Compound NOT metabolized | Compound NOT metabolized | Compound metabolized | Compound metabolized | Compound NOT metabolized | Compound NOT metabolized | Compound NOT metabolized | Compound NOT metabolized | Compound NOT metabolized | Compound NOT metabolized | Compound NOT metabolized | Compound NOT metabolized | Compound NOT metabolized | Compound NOT metabolized | Compound NOT metabolized | C[C@@H]1C[C@H]2[C@@H]3CCC4=CC(=O)C=C[C@]4(C)[C@@]3(F)[C@@H](O)C[C@]2(C)[C@@]1(O)C(=O)CO [DEXAMETHASONE] | Bacterial Biotransformation [21]: Compound NOT metabolized; Bacterial Biotransformation [22]: Compound NOT metabolized; Bacterial Biotransformation [23]: Compound NOT metabolized; Bacterial Biotransformation [24]: Compound NOT metabolized; Bacterial Biotransformation [25]: Compound NOT metabolized; Bacterial Biotransformation [26]: Compound NOT metabolized; Bacterial Biotransformation [27]: Compound NOT metabolized; Bacterial Biotransformation [28]: Compound NOT metabolized; Bacterial Biotransformation [29]: Compound NOT metabolized; Bacterial Biotransformation [30]: Compound NOT metabolized
Compound metabolized | Compound metabolized | Compound metabolized | Compound metabolized | Compound metabolized | Compound metabolized | Compound metabolized | Compound metabolized | Compound metabolized | Compound NOT metabolized | Compound NOT metabolized | Compound NOT metabolized | Compound metabolized | Compound metabolized | Compound NOT metabolized | Compound NOT metabolized | Compound NOT metabolized | Compound NOT metabolized | Compound NOT metabolized | Compound NOT metabolized | CO[C@H]1C[C@@H]2CC[C@@H](C)[C@@](O)(O2)C(=O)C(=O)N2CCCC[C@H]2C(=O)O[C@H]([C@H](C)C[C@@H]2CC[C@@H](O)[C@H](OC)C2)CC(=O)[C@H](C)/C=C(\C)[C@@H](O)[C@@H](OC)C(=O)[C@H](C)C[C@H](C)/C=C/C=C/C=C/1C [SIROLIMUS] | Bacterial Biotransformation [21]: Compound NOT metabolized; Bacterial Biotransformation [22]: Compound NOT metabolized; Bacterial Biotransformation [23]: Compound metabolized; Bacterial Biotransformation [24]: Compound NOT metabolized; Bacterial Biotransformation [25]: Compound metabolized; Bacterial Biotransformation [26]: Compound metabolized; Bacterial Biotransformation [27]: Compound metabolized; Bacterial Biotransformation [28]: Compound NOT metabolized; Bacterial Biotransformation [29]: Compound NOT metabolized; Bacterial Biotransformation [30]: Compound NOT metabolized
